Assay results taken from paper PMC13231921 (Antimicrobial Agents and Chemotherapy, 2026).

Test: Pharmacokinetics of GST-HG171 and ritonavir in plasma, alone and co-administered with itraconazole (drug-drug interaction study)
Conditions: Day 3, N = 12, median (minimum, maximum)

In the case of `CC(C)c1nc(CN(C)C(=O)N[C@H](C(=O)N[C@@H](Cc2ccccc2)C[C@H](O)[C@H](Cc2ccccc2)NC(=O)OCc2cncs2)C(C)C)cs1` [Ritonavir, ritonavir], the Tmax is reported as 2.50 (2.0008, 3.0011) h.
